Measured values taken from the supplement of paper PMC10307832.

Tests used:
Assay in all cases: relative viability (nuclei count vs DMSO), 5 days (fraction); higher = more cells survive
BMX-IN-1 + Olaparib = compound: C=CC(=O)Nc1cc(-n2c(=O)ccc3cnc4ccc(-c5ccc(NS(C)(=O)=O)cc5)cc4c32)ccc1C [BMX-IN-1] + O=C(c1cc(Cc2n[nH]c(=O)c3ccccc23)ccc1F)N1CCN(C(=O)C2CC2)CC1 [Olaparib] (partner 8 µM)
Outline: (§1)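 Relative viability was taken as the ratio of nuclei in treated wells to nuclei in vehicle wells. Lung cancer cell lines in 1536-well plates received compounds by pin tool one day after seeding, either one drug alone or a fixed anchor-drug dose plus five library-drug doses (not always all listed) in √10 steps. Nuclei were counted on 4× images after 5 days of treatment, and values are medians of duplicate plates.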

PAC-1 + Pictilisib = compound: C=CCc1cccc(/C=N/NC(=O)CN2CCN(Cc3ccccc3)CC2)c1O [PAC-1] + CS(=O)(=O)N1CCN(Cc2cc3nc(-c4cccc5[nH]ncc45)nc(N4CCOCC4)c3s2)CC1 [Pictilisib] (partner 1 µM)
Outline: as §1

BMX-IN-1 + Vorinostat = compound: C=CC(=O)Nc1cc(-n2c(=O)ccc3cnc4ccc(-c5ccc(NS(C)(=O)=O)cc5)cc4c32)ccc1C [BMX-IN-1] + O=C(CCCCCCC(=O)Nc1ccccc1)NO [Vorinostat] (partner 1 µM)
Outline: as §1

Ibrutinib + Luminespib = compound: C=CC(=O)N1CCC[C@@H](n2nc(-c3ccc(Oc4ccccc4)cc3)c3c(N)ncnc32)C1 [Ibrutinib] + CCNC(=O)c1noc(-c2cc(C(C)C)c(O)cc2O)c1-c1ccc(CN2CCOCC2)cc1 [Luminespib] (partner 0.01 µM)
Outline: as §1

Cell Line	relative viability (BMX-IN-1 + Olaparib; first compound 0.02 µM)	relative viability (BMX-IN-1 + Olaparib; first compound 0.2 µM)	relative viability (BMX-IN-1 + Olaparib; first compound 0.6325 µM)	relative viability (BMX-IN-1 + Olaparib; first compound 2 µM)	relative viability (PAC-1 + Pictilisib; first compound 0.02 µM)	relative viability (PAC-1 + Pictilisib; first compound 0.06325 µM)	relative viability (PAC-1 + Pictilisib; first compound 0.2 µM)	relative viability (PAC-1 + Pictilisib; first compound 2 µM)	relative viability (BMX-IN-1 + Vorinostat; first compound 0.02 µM)	relative viability (BMX-IN-1 + Vorinostat; first compound 0.2 µM)	relative viability (BMX-IN-1 + Vorinostat; first compound 0.6325 µM)	relative viability (BMX-IN-1 + Vorinostat; first compound 2 µM)	relative viability (Ibrutinib + Luminespib; first compound 0.01581 µM)	relative viability (Ibrutinib + Luminespib; first compound 0.05 µM)	relative viability (Ibrutinib + Luminespib; first compound 0.1581 µM)	relative viability (Ibrutinib + Luminespib; first compound 0.5 µM)	relative viability (Ibrutinib + Luminespib; first compound 0.005 µM)
HOP-62	0.403	0.485	0.33	0.379	0.653	0.573	0.689	0.726	0.742	0.755	0.613	0.559	0.881	0.958	0.935	0.918	–
IA-LM	0.871	0.843	0.938	0.94	0.339	0.363	0.355	0.456	0.797	0.807	1.03	0.722	–	–	–	–	–
LC-2-ad	0.829	0.848	0.674	0.733	0.523	0.588	0.511	0.56	0.74	0.766	0.674	0.783	1.01	1.14	1.13	–	1.06
LCLC-97TM1	0.383	0.597	0.413	0.367	–	0.206	0.178	0.231	0.724	1.08	1.04	0.842	0.656	0.798	0.867	0.735	0.795
LCLC-103H	0.883	0.886	0.834	0.741	0.549	0.612	0.592	0.638	0.724	0.823	0.882	0.842	0.905	0.896	1.09	0.897	1
LK-2	0.799	0.69	0.775	0.902	0.612	0.607	0.642	0.502	0.289	0.151	0.282	0.365	0.183	0.176	0.166	0.164	–
LOU-NH91	–	0.978	0.946	0.862	0.494	0.521	0.545	0.514	–	0.939	1.05	0.915	0.346	0.267	0.294	0.309	0.333
LU99A	0.25	0.259	0.265	0.229	0.32	0.271	0.313	0.322	0.501	0.421	0.669	0.612	0.24	0.285	0.249	0.248	0.191
LXF-289	1.32	1.19	1.12	1.14	0.846	0.727	0.739	0.792	0.824	0.876	0.912	0.882	0.673	0.722	0.692	0.643	0.685
NCI-H23	0.304	0.415	0.312	0.229	0.365	0.461	0.414	0.473	0.654	0.728	0.602	0.564	0.22	–	–	0.248	–
NCI-H322M	0.781	0.836	0.77	0.72	0.4	0.513	0.499	0.332	0.872	0.983	1.01	0.876	0.726	0.785	0.752	0.473	0.648
NCI-H358	0.634	0.743	0.71	0.548	0.355	0.396	0.376	0.367	0.816	0.811	0.788	0.652	0.253	0.306	0.267	0.174	0.366
NCI-H441	0.52	0.658	0.619	0.591	0.447	0.583	0.552	0.377	0.691	1.03	0.903	0.778	0.359	0.266	0.36	0.235	0.362
NCI-H460	0.481	0.475	0.445	0.439	0.281	0.405	0.355	0.39	1.05	–	1.11	0.782	0.0329	0.0328	0.0586	0.0349	0.0343
NCI-H522	0.656	0.689	0.66	0.601	–	–	–	–	0.979	0.786	0.832	0.968	1.05	1.17	1.07	0.922	1.11
NCI-H1299	1.05	0.978	0.992	1.03	0.876	0.763	0.815	0.657	–	–	–	–	–	–	–	–	–
NCI-H1563	–	–	–	–	0.641	0.695	0.752	0.63	–	–	–	–	0.524	0.519	0.519	0.53	0.538
NCI-H1623	–	–	–	–	–	–	–	–	–	–	–	–	0.505	0.486	0.414	0.304	0.382
NCI-H1648	0.994	0.849	0.958	0.925	–	–	–	–	0.522	1	0.3	0.503	–	–	–	–	–
NCI-H1703	0.486	0.368	0.284	0.336	0.245	0.267	0.249	0.205	–	–	–	–	–	–	–	–	–
NCI-H1792	0.492	0.436	0.491	0.322	0.319	0.279	0.287	0.285	–	–	–	–	0.486	0.485	0.364	0.367	–
NCI-H2342	0.44	0.446	0.473	0.43	–	–	–	–	0.827	0.728	0.71	0.65	0.608	0.707	0.655	0.497	0.719
SW 900	1.15	0.938	0.819	0.782	–	–	–	–	0.659	0.548	0.678	0.47	–	0.159	0.175	0.19	–
